Measurements reported in patent US10308631B2, “Selective anti-cancer compounds” (NATIONAL UNIVERSITY OF SINGAPORE, priority 2015, dated 2019).

How the values were obtained:
[1] = system: mitotic marker phospho-histone H3 at serine 10 (pH3 (Ser10)) in transformed BJ cells; test: Immunoblot analysis of mitotic marker pH3 (Ser10), derivatives of Compound 1; type: cell-based; settings: Homo sapiens, band intensities pH3(Ser10)/β-actin vs DMSO control, 24 h
Procedure: (§1) FIG. 4 compares the ability of Compound 1 (a131), and various derivatives thereof (referred to using their code numbers for brevity; the designated chemical compound for each code number is provided in the chemical examples section below), to inhibit autophagy and/or mitosis. BJ transformed cells were treated with 5 μM of various Compounds as shown, for 24 h. Cells were harvested and total lysates were analysed by detecting the mitotic marker phospho-histone H3 at serine 10 (pH3 (Ser10)) and the autophagosome marker LC3. Antibodies raised against β-actin were used as an internal loading control.
(§2) The ability of Compound 1 to inhibit lysosome function was examined using immunoblotting. HeLa cervical cancer cells were cultured in Dulbecco's modified Eagle's medium (DMEM) supplemented with 10% Fetal Bovine Serum (FBS, Thermo Scientific). The HeLa cells were treated with different concentrations of Compound 1 (0.625, 1.25, 2.5, 5 and 10 μM, dimethyl sulfoxide (DMSO, Kanto Kagaku)), chloroquine (CQ) (1.25, 2.5, 10, 50 and 100 μM, DMSO) or DMSO for 6 h. Then, the treated cells were harvested and lysed in 1% triton lysis buffer [25 mM Tris HCl (pH8.0), 150 mM NaCl, 1% triton-X100, 1 mM dithiothreitol (DTT), protease inhibitor mix (Complete Mini, Roche) and phosphatase inhibitor (PhosphoStop, Roche)]. The proteins in total lysates were boiled with sample buffer (60 mM Tris-HCl (pH 6.8), 25% glycerol, 2% SDS, 14.4 mM 2-mercaptoethanol, 0.1% bromophenol blue) and resolved by 14% tris-glycine sodium dodecyl sulfate polyacrylamide gel electrophoresis (SDS-PAGE) and subjected to immunoblot analysis.
(§3) Defects in lysosome function and inhibition of autophagy can be measured by accumulation of LC3-phosphatidylethanolamine conjugated non-soluble form (LC3-II), which are converted from soluble LC3-I. Thus, antibodies raised against LC3 (Cell Signaling, Cat#4108) were used to determine lysosomal function and integrity. Antibodies raised against phosphorylated histone H3 at serine 10 residue (pH3) (Cell signaling, Cat#3377) were used as the marker for mitotic dysfunction and arrest. Antibodies raised against β-actin (Millipore, Cat#MAB1501) were used as an internal loading control. The inhibitory ability of Compound 1 was also quantitatively compared to CQ.
(§4) Derivatives of Compound 1 were tested to see if they had similar dual activity, or presented only one of the activities of Compound 1. The protocol for immunoblot analysis described in Biology Example 1 was applied to the additional indicated compounds.
(§5) Activities of compounds were determined by two independent experiments. First, Compounds were classified according to the intensity of increase in each of the mitotic marker phospho-histone H3 at serine 10 (pH3 (Ser 10)) and the autophagosome marker LC3, respectively, at 1.25 μM, when compared with 1.25 μM Compound 1 (a131).
(§6) Compounds classified “++” on either “mitosis” or “inhibits lysosome” show similar increase in each of the mitotic marker phospho-histone H3 at serine 10 (pH3 (Ser10)) and the autophagosome marker LC3, respectively, at 2.5 μM, when compared with 1.25 μM Compound 1 (a131); and compounds classified “+” on either “mitosis” or “inhibits lysosome” show similar increase in each of the mitotic marker phospho-histone H3 at serine 10 (pH3 (Ser10)) and the autophagosome marker LC3, respectively, at a concentration range of 5-10 μM, when compared with 1.25 μM Compound 1 (a131).
Compounds classified “+/−” on either “mitosis” or “inhibits lysosome” show less increase in each of the mitotic marker phospho-histone H3 at serine 10 (pH3 (Ser10)) and the autophagosome marker LC3, respectively, at a concentration range of 5-10 μM, when compared with 1.25 μM Compound 1 (a131).
Next, the ability of Compound 1 and its derivatives to induce mitotic arrest in transformed BJ cells was quantified as the fold induction of band intensities [pH3(Ser10)/β-actin] in comparison with DMSO control. […]

[2] = system: autophagosome marker LC3 (LC3 II/LC3 I) in transformed BJ cells; test: Immunoblot analysis of autophagosome marker LC3 (lysosome function), derivatives of Compound 1; type: cell-based; settings: Homo sapiens, band intensities LC3 II/LC3 I vs DMSO control, 24 h
Procedure: as §1, §2, §3, §4, §5, §6
Compounds classified “+/−” on either “mitosis” or “inhibits lysosome” show less increase in each of the mitotic marker phospho-histone H3 at serine 10 (pH3 (Ser10)) and the autophagosome marker LC3, respectively, at a concentration range of 5-10 μM, when compared with 1.25 μM Compound 1 (a131). […]

[3] = system: pH3 (Ser10) and LC3 in BJ transformed cells; test: Immunoblot classification of compounds by pH3 and LC3 (FIG. 4); type: cell-based, human; settings: 5 μM, 24 h
Procedure: as §1, §4

SMILES | fold induction at 5 µM [1] | fold induction at 5 µM [2] | Inhibition of lysosome function and/or mitosis (FIG. 4) [3]
COc1ccc2[nH]cc(/C(C#N)=C/c3cccc4cnccc34)c2c1 [Compound 2, (Z)-3-(isoquinolin-5-yl)-2-(5-methoxy-1H-indol-3-yl)acrylonitrile] | 3 | 3.2 | exhibit the dual properties of inhibiting both lysosome function and mitosis
N#C/C(=C\c1cncc2cnccc12)c1c[nH]c2ccccc12 [Compound 4, (Z)-2-(1H-indol-3-yl)-3-(2,7-naphthyridin-4-yl)acrylonitrile] | 1.4 | 1 | –
N#C/C(=C\c1cccc2cnccc12)c1c[nH]c2c(Br)cccc12 [Compound 5, (Z)-2-(7-bromo-1H-indol-3-yl)-3-(isoquinolin-5-yl)acrylonitrile] | 1.4 | 2.2 | –
COc1cccc2c(/C(C#N)=C/c3cccc4cnccc34)c[nH]c12 [Compound 6, (Z)-3-(isoquinolin-5-yl)-2-(7-methoxy-1H-indol-3-yl)acrylonitrile] | 3.9 | 2.7 | exhibit the dual properties of inhibiting both lysosome function and mitosis
N#C/C(=C\c1cccc2cnccc12)c1c[nH]c2ccc(Cl)cc12 [Compound 7, (Z)-2-(5-chloro-1H-indol-3-yl)-3-(isoquinolin-5-yl)acrylonitrile] | 1.4 | 2 | inhibit lysosome function only
N#C/C(=C\c1cccc2cnccc12)c1c[nH]c2ccc(Br)cc12 [Compound 8, (Z)-2-(5-bromo-1H-indol-3-yl)-3-(isoquinolin-5-yl)acrylonitrile] | 2.1 | 4 | exhibit the dual properties of inhibiting both lysosome function and mitosis
COc1ccc2c(/C(C#N)=C/c3cccc4cnccc34)c[nH]c2c1 [Compound 9, (Z)-3-(isoquinolin-5-yl)-2-(6-methoxy-1H-indol-3-yl)acrylonitrile] | 4.3 | 2.6 | exhibit the dual properties of inhibiting both lysosome function and mitosis
N#C/C(=C\c1cccc2cnccc12)c1c[nH]c2cc(Br)ccc12 [Compound 10, (Z)-2-(6-bromo-1H-indol-3-yl)-3-(isoquinolin-5-yl)acrylonitrile] | 1.6 | 0.7 | –
N#C/C(=C\c1cccc2cnccc12)c1c[nH]c2ccc(OCCC3OCCO3)cc12 [Compound 11, (Z)-2-(5-(2-(1,3-dioxolan-2-yl)ethoxy)-1H-indol-3-yl)-3-(isoquinolin-5-yl)acrylonitrile] | 1 | 0.7 | –
COCCOc1ccc2[nH]cc(/C(C#N)=C/c3cccc4cnccc34)c2c1 [Compound 12, (Z)-2-(5-(2-methoxyethoxy)-1H-indol-3-yl)-3-(isoquinolin-5-yl)acrylonitrile] | 1.6 | 3.2 | inhibit lysosome function only
N#C/C(=C\c1cccc2cnccc12)c1c[nH]c2ccc(OCCCN3CCCC3)cc12 [Compound 13, (Z)-2-(5-(3-(pyrrolidin-1-yl)propoxy)-1H-indol-3-yl)-3-(isoquinolin-5-yl)acrylonitrile] | 0.9 | 6 | inhibit lysosome function only
CC(=O)Nc1ccc2[nH]cc(/C(C#N)=C/c3cccc4cnccc34)c2c1 [Compound 14, N-(3-((Z)-1-cyano-2-(isoquinolin-5-yl)vinyl)-1H-indol-5-yl)acetamide] | 1.2 | 0.5 | –
N#C/C(=C\c1cccc2cnccc12)c1c[nH]c2ccc(NC(=O)CCCC[C@@H]3SC[C@@H]4NC(=O)N[C@@H]43)cc12 [Compound 15, N-(3-((Z)-1-cyano-2-(isoquinolin-5-yl)vinyl)-1H-indol-5-yl)-5-((3aS,4S,6aR)-2-oxohexahydro-1H-thieno[3,4-d]imidazol-4-yl)pentanamide] | 1.7 | 1.1 | –
CC(=O)NCCC(=O)n1cc(/C(C#N)=C/c2cccc3cnccc23)c2ccccc21 [Compound 17, (Z)—N-(3-(3-(1-cyano-2-(isoquinolin-5-yl)vinyl)-1H-indol-1-yl)-3-oxopropyl)acetamide] | 2.8 | 2.3 | –
N#C/C(=C\c1cccc2cnccc12)c1cn(C(=O)CCCC[C@@H]2SC[C@@H]3NC(=O)N[C@@H]32)c2ccccc12 [Compound 18, (Z)-3-(isoquinolin-5-yl)-2-(1-(5-((3aS,4S,6aR)-2-oxohexahydro-1H-thieno[3,4-d]imidazol-4-yl)pentanoyl)-1H-indol-3-yl)acrylonitrile] | 2.2 | 1.7 | inhibit mitosis only
CC(C)(C)OC(=O)N1CCC(C(=O)n2cc(/C(C#N)=C/c3cccc4cnccc34)c3ccccc32)CC1 [Compound 19, (Z)-tert-butyl 4-(3-(1-cyano-2-(isoquinolin-5-yl)vinyl)-1H-indole-1-carbonyl)piperidine-1-carboxylate] | 16.2 | 5.2 | exhibit the dual properties of inhibiting both lysosome function and mitosis
CC(C)(C)OC(=O)NCCC(=O)n1cc(/C(C#N)=C/c2cccc3cnccc23)c2ccccc21 [Compound 20, (Z)-tert-butyl (3-(3-(1-cyano-2-(isoquinolin-5-yl)vinyl)-1H-indol-1-yl)-3-oxopropyl)carbamate] | 4.8 | 3.9 | exhibit the dual properties of inhibiting both lysosome function and mitosis
N#C/C(=C\c1cccc2cnccc12)c1cn(C(=O)CCN)c2ccccc12 [Compound 22, (Z)-2-(1-(3-aminopropanoyl)-1H-indol-3-yl)-3-(isoquinolin-5-yl)acrylonitrile] | 2.1 | 4.1 | exhibit the dual properties of inhibiting both lysosome function and mitosis
C(=C\c1c[nH]c2ccccc12)/c1cccc2cnccc12 [Compound 25, 5-((E)-2-(1H-indol-3-yl)vinyl)isoquinoline] | 1.3 | 5.4 | –
O=C(Nc1cccc2cnccc12)c1c[nH]c2ccccc12 [Compound 29, N-(isoquinolin-5-yl)-1H-indole-3-carboxamide] | 1.4 | 0.4 | –
